Reference: patent US12414958B2, “Medicament and use thereof for treating bacterial infections involving biofilm” (Debiopharm International S.A., priority 2019, dated 2025)
“And” between values parts separate entries of the source, which are not always exact repeats. Equal entries are not always repeated.

System: S. aureus ATCC 43300 (MRSA)
Assay: Mouse tissue cage model of MRSA infection, 5.5-day treatment (Example 2)
Type: in vivo, Staphylococcus aureus
Conditions: for Cure rate (%) / adherent bacteria reduction from baseline (mean±SD): 24-h biofilm; for Cure rate (%) / adherent bacteria reduction from baseline (mean±SD) / Planktonic day 3 Δlog (individual animal): 5.5-day treatment; for Cure rate (%): cages without growth / total cages; for adherent bacteria reduction from baseline (mean±SD): n=3, given as positive reduction; for Adherent Δlog (individual animal) / Adherent Mean: medium after sonication of explanted tissue cages, day 9 vs day 1; for Adherent Mean: group mean; for day on which bactericidal effect (mean reduction of bacterial load by ≥3 Log10) on planktonic bacteria was exerted: planktonic bacteria in tissue cage fluid, time points day 3, 6, 9; for Planktonic day 3 Mean / Planktonic day 6 Mean / Planktonic day 9 Mean / Planktonic day 3 Δlog (individual animal) / Planktonic day 9 Δlog (individual animal) / Planktonic day 6 Δlog (individual animal): tissue cage fluid; for Planktonic day 3 Mean / Planktonic day 6 Mean / Planktonic day 9 Mean: group mean Δlog from baseline (day 1); for Planktonic day 3 Δlog (individual animal) / Planktonic day 9 Δlog (individual animal) / Planktonic day 6 Δlog (individual animal): reduction from baseline (day 1); for Planktonic day 3 Δlog (individual animal): C57BL/6 mice; for Planktonic day 9 Δlog (individual animal): 3 days after end of treatment
Source text: The purpose of this study was to evaluate the efficacy of Debio 1450 BES alone and in combination with Daptomycin (DAP) in the mouse tissue cage model of implant-associated infections caused by methicillin resistant Staphylococcus (S.) aureus (MRSA). The efficacy against 24-h biofilm of S. aureus ATCC 43300 (MRSA) was investigated and compared to the standard of care combination of rifampicin (RIF) and DAP at the human equivalent doses. Employing a small initial inoculum (ca. 300 CFU/cage) together with a 24-h biofilm allowed to simulate clinical settings of an acute implant infection and/or surgical debridement.
The tissue cage model of prosthetic joint infections is very well-established and closely mimics the human prosthetic joint infections. This model is based on subcutaneous insertion of tissue cages followed by experimental infection of the foreign body by injection of bacterial inoculum into the cages.
In brief, one sterile polytetrafluorethylene (Teflon) cylinder (32×10 mm), perforated by 130 regularly spaced holes of 1 mm diameter (tissue cages; Angst-Pfister AG, Zürich) was aseptically implanted subcutaneously into the back of C57BL/6 mice (minimum weight 20 g). Experiments were started after complete wound healing (minimum 2 weeks after surgery). For the efficacy study presented here the cages in all animals were infected with around 300 colony-forming units (CFU) of the MRSA strain ATCC 43300 per cage and the biofilm were developed for 24 h before the beginning of the treatment.
The animals received antibiotic treatment i.p. (Debio 1450 BES and DAP) or sc (RIF) on day 1, 2, 3, 4, 5, and 6 (only the morning administration on day 6). One group received only 5% glucose and served as infected, untreated control group (vehicle). […] Debio 1450 and vehicle were administered bid, and qdam on day 6. DAP and RIF were administered qdam. The 50 mg/kg dose of Debio 1450 BES was selected as the HED. The DAP dose of […] was chosen as it closely correlates with the human clinical dosage of 10 mg/kg once daily. The RIF dose of 25 mg/kg is among the most commonly used in the treatment of experimental biofilm infections.
Five to 6 days before infection, TCF is aspirated to ascertain the sterility of implanted cages by TCF plating on blood agar plates. […] In addition, the number of bacteria in TCF was determined on day 3 (before the first injection that day), on day 6 (before last treatment), and on day 9 (before explantation of the cages) to evaluate the treatment efficacy against planktonic bacteria. The mouse number and bacterial count for the given cage were reported to analyse the time course of antibacterial activity of the tested drugs. The efficacy against biofilm-embedded bacteria was assessed qualitatively and quantitatively following aseptic explantation of the tissue cages 3 days after the completion of treatment. The 3 days of resting period will help to avoid the antibiotic carryover effect. Upon explantation, cages were washed twice with phosphate buffered saline (PBS) (Lot #5060914) and immediately transferred into 5 mL 0.9% NaCl (Lot #L161619 or L162658). Following 30 s vortexing, sonication (3 min at 130 W), and an additional 30 s vortexing step the numbers of bacteria dispersed from biofilm was determined by plating. The sonicated cages were washed once with PBS, transferred into 5 mL TSB (Lot #0286463), and incubated for 48 h at 37° C., with an additional vortexing step after 24 h of incubation. After the incubation, tubes were vortexed again and bacterial regrowth was assessed visually. In addition, 100 μL of each culture was plated on blood agar plates to ascertain the regrowth. A positive culture was defined as a treatment failure. The efficacy of treatment against adherent bacteria is expressed as the cure rate (in percent), defined as the number of cages without growth divided by the total number of cages in the individual treatment group.

With `CO[C@H]1/C=C/O[C@@]2(C)Oc3c(C)c(O)c4c(O)c(c(/C=N/N5CCN(C)CC5)c(O)c4c3C2=O)NC(=O)/C(C)=C\C=C\[C@H](C)[C@H](O)[C@@H](C)[C@@H](O)[C@@H](C)[C@H](OC(C)=O)[C@@H]1C` [Rifampicin] the “Cure rate (%)” value was 100%, the “adherent bacteria reduction from baseline (mean±SD)” value was 3.37±0 log 10 CFU/mL and the “Adherent Δlog (individual animal)” value was −3.4 log 10 CFU/mL. For the same compound, the “Adherent Mean” value was −3.37 log 10 CFU/mL, the “day on which bactericidal effect (mean reduction of bacterial load by ≥3 Log10) on planktonic bacteria was exerted” value was 3 day and the “Planktonic day 3 Mean” value was −4.53 Log10. For the same compound, the “Planktonic day 6 Mean” value was −4.53 Log10, the “Planktonic day 9 Mean” value was −4.53 Log10 and the “Planktonic day 3 Δlog (individual animal)” value (“Planktonic day 3 Δlog” for short) (listed as RIF) was −4.08 Log10 and −6.73 Log10 and −3.5 Log10 and −3.4 Log10 and −4.9 Log10. For the same compound, the “Planktonic day 9 Δlog (individual animal)” value (from here on “Planktonic day 9 Δlog”) (listed as RIF) was −4.08 Log10 and −6.73 Log10 and −3.5 Log10 and −3.4 Log10 and −4.9 Log10 and the “Planktonic day 6 Δlog (individual animal)” value (from here on “Planktonic day 6 Δlog”) (listed as RIF) was −4.08 Log10 and −6.73 Log10 and −3.5 Log10 and −3.4 Log10 and −4.9 Log10.
With `Cc1c(CN(C)C(=O)/C=C/c2cnc3c(c2)CCC(=O)N3COP(=O)(O)O)oc2ccccc12` [Debio 1450, {6-[(1E)-3-{methyl [(3-methyl-1-benzofuran-2-yl)methyl]amino}-3-oxoprop-1-en-1-yl]-2-oxo-3,4-dihydro-1,8-naphthyridin-1 (2H)-yl} methyl dihydrogen phosphate] the “Cure rate (%)” value was 50%, the “adherent bacteria reduction from baseline (mean±SD)” value was 3.81±1.15 log 10 CFU/mL and the “Adherent Δlog (individual animal)” value was −4.48 log 10 CFU/mL (2×) and −2.48 log 10 CFU/mL. The “Adherent Mean” value was −3.81 log 10 CFU/mL, the “day on which bactericidal effect (mean reduction of bacterial load by ≥3 Log10) on planktonic bacteria was exerted” value was 6 day and the “Planktonic day 3 Mean” value was −2.62 Log10. The “Planktonic day 6 Mean” value was −4.45 Log10, the “Planktonic day 9 Mean” value was −3.90 Log10 and the “Planktonic day 6 Δlog” value was −3.24 Log10 and −2.69 Log10 and −5.64 Log10 and −5.10 Log10 and −4.91 Log10 and −5.09 Log10. The “Planktonic day 3 Δlog” value was −1.42 Log10 and −1.40 Log10 and −2.10 Log10 and −5.10 Log10 and −1.93 Log10 and −3.79 Log10 and the “Planktonic day 9 Δlog” value was −5.85 Log10 and −3.41 Log10 and −1.32 Log10 and −5.10 Log10 and −4.91 Log10 and −2.79 Log10.
`CCCCCCCCCC(=O)N[C@@H](Cc1c[nH]c2ccccc12)C(=O)N[C@H](CC(N)=O)C(=O)N[C@@H](CC(=O)O)C(=O)N[C@@H]1C(=O)NCC(=O)N[C@@H](CCCN)C(=O)N[C@@H](CC(=O)O)C(=O)N[C@H](C)C(=O)N[C@@H](CC(=O)O)C(=O)NCC(=O)N[C@H](CO)C(=O)N[C@@H]([C@H](C)CC(=O)O)C(=O)N[C@@H](CC(=O)c2ccccc2N)C(=O)O[C@@H]1C` [Daptomycin] was tested, and the “Cure rate (%)” value was 33%, the “Adherent Mean” value was −3.91 log 10 CFU/mL and the “Adherent Δlog (individual animal)” value (listed as DAP) was −4.48 log 10 CFU/mL (2×) and −2.78 log 10 CFU/mL. For the same compound, the “day on which bactericidal effect (mean reduction of bacterial load by ≥3 Log10) on planktonic bacteria was exerted” value was 3 day, the “Planktonic day 3 Mean” value was −3.10 Log10 and the “Planktonic day 6 Mean” value was −4.91 Log10. The “Planktonic day 9 Mean” value was −3.60 Log10, the “Planktonic day 3 Δlog” value (listed as DAP) was −2.41 Log10 and −4.79 Log10 and −0.67 Log10 and −5.15 Log10 and −2.91 Log10 and −2.70 Log10 and the “Planktonic day 9 Δlog” value (listed as DAP) was −1.07 Log10 and −4.79 Log10 and 0.73 Log10 and −5.15 Log10 and −5.95 Log10 and −5.38 Log10. For the same compound, the “Planktonic day 6 Δlog” value (listed as DAP) was −5.72 Log10 and −4.79 Log10 and −2.46 Log10 and −5.15 Log10 and −5.95 Log10 and −5.38 Log10.
